The values below come from US20200291391A1, “CROSS-LINKED EPITOPES AND METHODS OF USE THEREOF” (Indi Molecular, Inc., priority 2019, published 2020).

One assay concerns CD8+SupT1 cells. Put plainly: Flow cytometry binding to CD8+ cells. Format: cell-based. The note with it: for selective binding to CD8+ cells in flow cytometry: SupT1 (CD8+) vs Jurkat (CD8-) cells, FIG. 11; for binding to CD8+SupT1 cells by flow cytometry: with the 1kPEG linker. The procedure: (§1) Three hits were left after this screening (Table 3). These hits were assessed in solid phase ELISA and in flow cytometry experiments.
(§2) Binding of krsah (SEQ ID NO:27) was detected on both CD8+SupT1 cells and CD8−Jurkat cells. The mean fluorescence intensity ratio to each of the ligands tfpkk (SEQ ID NO:21), krsah (SEQ ID NO:27), and snprk (SEQ ID NO:28) was determined (Table 4). The mean fluorescence intensity ratio of different amounts of the ligand tfpkk (SEQ ID NO:21) was determined (Table 5).
(§3) Binding of Biotin-1kPEG-tfpkk (SEQ ID NO:21) to CD8+SupT1 cells or CD8−Jurkat was performed at room temperature (RT) or 4° C.
(§4) Concentration of biotin-1kPEG-tfpkk (SEQ ID NO:21) and -nfyrr (SEQ ID NO:32) was titrated on SupT1 and Jurkat cells. The biotin-1kPEG-ligands were incubated with CD8+SupT1 cells and CD8−Jurkat cells at a concentrations of […].
For orientation: A flow cytometer gives signals particle by particle.

The next assay relates to CD8−Jurkat cells. Put plainly: Flow cytometry binding to CD8- cells. Format: cell-based. The note with it: with the 1kPEG linker. The procedure: as §1, §2, §3, §4
The next assay deals with T1, epitope B2 (Homo sapiens, UniProt P01732, L47X).
T1 construct: host or cells: synthetic peptide (per the listing)
Put plainly: Epitope bound by ligand. Format: binding. The protocol:
Epitope B2 ligand tfpkk (SEQ ID NO:21) and the three hit ligands selected against CD8 epitopes A2, B2, H, and J were tested for binding to CD8+ and CD8− cells by flow cytometry.

Assay [1] addresses T2, CD8 epitopes A, B, C, D, and E (Homo sapiens, UniProt P01732, M123X).
T2 construct: host or cells: synthetic peptide (per the listing)
Put plainly: Bead-coupled alkyne peptide screened with azide- and biotin-containing epitopes, alkaline phosphatase-streptavidin development. Format: binding. The note with it: D, and E tested. The protocol:
The epitope E ligand used in the biligand is tfpkk (SEQ ID NO:21). It was determined that tfpkk (SEQ ID NO:21) binds to epitope E by screening an alkyne-containing tfpkk peptide (SEQ ID NO:21) coupled to a bead (FIG. 8) with azide- and biotin-containing epitopes A, B, C, D, and E (FIG. 9). The epitopes used in the screen were: Epitope A (a.a. 1-10): Biotin-PEG3-[Az4]-SQFRVSPLDR (SEQ ID NO:22); Epitope B (a.a. 24-32): Biotin-PEG3-[Az4]-VLLSNPTSG (SEQ ID NO:23); Epitope C (a.a. 58-77): Biotin-PEG3-KAAEGLDTQ-[Az4]-FSGKRLGDTF (SEQ ID NO:24); Epitope D (a.a. 68-83): Biotin-PEG3-FSGKRL-[Az4]-DTFVLTLSD (SEQ ID NO:25); Epitope E (a.a. 95-110): Biotin-PEG3-SALSNSI-[Az4]-YFSHFVPV (SEQ ID NO:26).
This is in agreement with docking calculations of binding affinities of the epitopes to tfpkk (SEQ ID NO:21) and a control peptide (krsah; SEQ ID NO:27) (Table 2).

“Also recorded” adds a separate entry of the source. Where a SMILES comes first, the peptide text is derived from it. Bridges are numbered along the chain shown (N, C = ends). Triazole bridges read from a SMILES are 1,4-linked. Where no end group is shown, it is not given here. [ ]: non-standard residue; d: D form. Lys(N3) = [N-]=[N+]=NCCCC[C@H](N)C(=O)O; Pra = C#CC[C@H](N)C(=O)O

As to “herlk: CD8 ligand hit of four epitope cocktail screening ([dH][dE][dR][dL][dK])”, the “selective binding to CD8+ cells in flow cytometry” value with CD8+SupT1 cells is recorded as “weakly selective binding to CD8+ cells”.

In the case of “krsah: CD8 ligand hit; control peptide in docking ([dK][dR][dS][dA][dH])”, the “binding to CD8−Jurkat cells by flow cytometry” value with CD8−Jurkat cells is on record as “detected; also recorded: also observed”. Further, in the assay with CD8+SupT1 cells, the “binding to CD8+SupT1 cells by flow cytometry” value is “can be detected”.

Take “tfpkk: CD8 ligand peptide; epitope E ligand used in the biligand ([dT][dF][dP][dK][dK])”: in the assay with CD8−Jurkat cells, the “binding to CD8−Jurkat cells by flow cytometry” value was “little binding”. Also, the epitope bound entry with epitope B2 is “bind to epitope B2”. The “binding to CD8+SupT1 cells by flow cytometry” value in the assay on CD8+SupT1 cells was “observed”. Also, the “color development of beads with alkaline phosphatase-linked streptavidin” value in assay [1] was “color only when epitope E was used”.

Regarding “nsprw: CD8 ligand hit of four epitope cocktail screening ([dN][dS][dP][dR][dW])”, in the assay with CD8+SupT1 cells, the “selective binding to CD8+ cells in flow cytometry” value is listed as “weak (and weakly selective) binding to CD8+ cells”.

Regarding `C[C@H](O)[C@H]1NC(=O)[C@@H](Cc2ccc(O)cc2)NC(=O)[C@@H](Cc2c[nH]cn2)NC(=O)[C@@H](CCCCN)NC(=O)[C@@H](N)Cc2cn(nn2)CCCC[C@@H](C(N)=O)NC(=O)[C@@H](CC(N)=O)NC1=O` [khytn] (H-[Pra][dK][dH][dY][dT][dN][Lys(N3)]-NH2; triazole 1-7; N-terminus assumed), on epitope B2, the epitope bound entry was “bind to epitope B2”.
